Measurements published in ChEMBL document CHEMBL4033724, “Novel sulfonamide-containing 2-indolinones that selectively inhibit tumor-associated alpha carbonic anhydrases” (Bioorg Med Chem, 2017).

Tests used:
Carbonic anhydrase 2 = Carbonic anhydrase 2 (Homo sapiens, UniProt P00918); test: Inhibition of recombinant human cytosolic carbonic anhydrase 2 expressed in Escherichia coli pretreated for 15 mins prior to testing by stopped-flow assay
Carbonic anhydrase 12 = Carbonic anhydrase 12 (Homo sapiens, UniProt O43570); test: Inhibition of recombinant human […] expressed in Escherichia coli pretreated for 15 mins prior to testing by stopped-flow assay
Carbonic anhydrase 9 = Carbonic anhydrase 9 (Homo sapiens, UniProt Q16790); test: Inhibition of recombinant human membrane bound carbonic anhydrase 9 expressed in Escherichia coli pretreated for 15 mins prior to testing by stopped-flow assay
Carbonic anhydrase 1 = Carbonic anhydrase 1 (Homo sapiens, UniProt P00915); test: Inhibition of recombinant human cytosolic carbonic anhydrase 1 expressed in Escherichia coli pretreated for 15 mins prior to testing by stopped-flow assay
Sequence of Carbonic anhydrase 1 (P00915 whole entry): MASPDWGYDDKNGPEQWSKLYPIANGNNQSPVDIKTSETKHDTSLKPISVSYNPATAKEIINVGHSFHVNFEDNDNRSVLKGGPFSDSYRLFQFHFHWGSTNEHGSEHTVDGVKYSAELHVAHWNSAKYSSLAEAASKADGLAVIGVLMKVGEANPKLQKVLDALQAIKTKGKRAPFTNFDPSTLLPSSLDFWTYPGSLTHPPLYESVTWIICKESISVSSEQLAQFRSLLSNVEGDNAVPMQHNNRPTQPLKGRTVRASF

Sequence of Carbonic anhydrase 12 (O43570 whole entry): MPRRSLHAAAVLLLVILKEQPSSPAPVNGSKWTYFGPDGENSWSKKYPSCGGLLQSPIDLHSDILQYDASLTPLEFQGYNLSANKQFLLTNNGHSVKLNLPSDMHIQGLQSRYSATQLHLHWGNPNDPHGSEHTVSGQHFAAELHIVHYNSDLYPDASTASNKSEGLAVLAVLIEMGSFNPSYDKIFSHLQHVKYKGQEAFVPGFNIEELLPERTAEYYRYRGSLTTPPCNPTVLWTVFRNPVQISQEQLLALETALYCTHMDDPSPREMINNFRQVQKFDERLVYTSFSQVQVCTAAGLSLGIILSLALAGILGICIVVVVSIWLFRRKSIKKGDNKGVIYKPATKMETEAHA

Row | SMILES | Ki (Carbonic anhydrase 2) | Ki (Carbonic anhydrase 12) | Ki (Carbonic anhydrase 9) | Ki (Carbonic anhydrase 1)
1 | NS(=O)(=O)c1ccc(NC(=S)N/N=C2\C(=O)Nc3ccc(I)cc32)cc1 | 0.399 µM | 0.0059 µM | 0.0168 µM | 0.624 µM
2 | NS(=O)(=O)c1ccc(NC(=S)N/N=C2\C(=O)Nc3ccc(Br)cc32)cc1 | 0.851 µM | 0.0061 µM | 0.0648 µM | 0.882 µM
3 | Cc1ccc2c(c1)/C(=N/NC(=S)Nc1ccc(S(N)(=O)=O)cc1)C(=O)N2 | 0.735 µM | 0.0057 µM | 0.0623 µM | 0.744 µM
4 | NS(=O)(=O)c1ccc(NC(=S)N/N=C2\C(=O)Nc3c(F)cccc32)cc1 | 0.0269 µM | 0.0455 µM | 0.0208 µM | 0.0576 µM
5 | NS(=O)(=O)c1ccc(NC(=S)N/N=C2\C(=O)Nc3c(Cl)cc(Cl)cc32)cc1 | 0.782 µM | 0.0823 µM | 0.0213 µM | 0.554 µM
6 | NS(=O)(=O)c1ccc(NC(=S)N/N=C2\C(=O)Nc3ccc(F)cc32)cc1 | 0.551 µM | 0.0045 µM | 0.0388 µM | 0.558 µM
7 | NS(=O)(=O)c1ccc(NC(=S)N/N=C2\C(=O)Nc3ccccc32)cc1 | 0.936 µM | 0.0069 µM | 0.0663 µM | 1.19 µM
8 | NS(=O)(=O)c1ccc(NC(=S)N/N=C2\C(=O)Nc3c(Cl)cccc32)cc1 | 0.426 µM | 0.0873 µM | 0.0133 µM | 0.0761 µM
9 | NS(=O)(=O)c1ccc(NC(=S)N/N=C2\C(=O)Nc3ccc(OC(F)(F)F)cc32)cc1 | 0.42 µM | 0.006 µM | 0.0457 µM | 0.481 µM

Continued by falling Ki (Carbonic anhydrase 2), values first:

Row | Ki (Carbonic anhydrase 2) | Ki (Carbonic anhydrase 12) | Ki (Carbonic anhydrase 9) | Ki (Carbonic anhydrase 1) | SMILES
10 | 0.897 µM | 0.0012 µM | 0.0344 µM | 0.901 µM | NS(=O)(=O)c1ccc(NC(=S)N/N=C2\C(=O)Nc3ccc(S(=O)(=O)O)cc32)cc1
11 | 0.687 µM | 0.0063 µM | 0.0581 µM | 0.698 µM | NS(=O)(=O)c1ccc(NC(=S)N/N=C2\C(=O)Nc3c(Br)cc(Br)cc32)cc1
12 | 0.616 µM | 0.0058 µM | 0.0542 µM | 0.65 µM | NS(=O)(=O)c1ccc(NC(=S)N/N=C2\C(=O)Nc3ccc(Cl)cc32)cc1
13 | 0.032 µM | 0.0041 µM | 0.0195 µM | 0.0688 µM | NS(=O)(=O)c1ccc(NC(=S)N/N=C2\C(=O)Nc3ccc([N+](=O)[O-])cc32)cc1
